# Test results taken from PMC12969314 (European journal of medicinal chemistry, 2022).
# Tests used:
# [1] = Human liver microsomal intrinsic clearance; assay type: in vitro ADME; conditions: human; for CLint scaled: liver microsomes, Intrinsic clearance hCLINT, human liver microsomes; for Predicted hepatic clearance hCLHEP: well-stirred organ CL model, binding terms excluded
# α2C = target: T1, α2C (Homo sapiens, UniProt P18825); test: PDSP panel binding, α2C
# T1 sequence (P18825 1-462): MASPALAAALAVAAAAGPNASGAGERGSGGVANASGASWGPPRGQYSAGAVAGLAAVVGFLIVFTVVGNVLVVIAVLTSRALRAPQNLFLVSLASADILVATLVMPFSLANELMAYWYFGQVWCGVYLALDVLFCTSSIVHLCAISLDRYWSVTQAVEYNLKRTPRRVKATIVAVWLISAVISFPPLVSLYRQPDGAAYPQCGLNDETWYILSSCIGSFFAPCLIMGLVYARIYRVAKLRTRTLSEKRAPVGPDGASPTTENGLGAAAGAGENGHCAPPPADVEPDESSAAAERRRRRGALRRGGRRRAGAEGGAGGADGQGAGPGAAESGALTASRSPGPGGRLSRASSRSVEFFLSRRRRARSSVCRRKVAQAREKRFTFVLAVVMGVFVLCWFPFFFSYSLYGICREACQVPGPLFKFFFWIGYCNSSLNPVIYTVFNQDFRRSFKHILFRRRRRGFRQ
# [2] = Mouse brain homogenate binding; assay type: in vitro ADME
# D4 receptor = target: T2, D4 receptor (Homo sapiens, UniProt P21917); assay type: binding
# T2 sequence (P21917 1-419): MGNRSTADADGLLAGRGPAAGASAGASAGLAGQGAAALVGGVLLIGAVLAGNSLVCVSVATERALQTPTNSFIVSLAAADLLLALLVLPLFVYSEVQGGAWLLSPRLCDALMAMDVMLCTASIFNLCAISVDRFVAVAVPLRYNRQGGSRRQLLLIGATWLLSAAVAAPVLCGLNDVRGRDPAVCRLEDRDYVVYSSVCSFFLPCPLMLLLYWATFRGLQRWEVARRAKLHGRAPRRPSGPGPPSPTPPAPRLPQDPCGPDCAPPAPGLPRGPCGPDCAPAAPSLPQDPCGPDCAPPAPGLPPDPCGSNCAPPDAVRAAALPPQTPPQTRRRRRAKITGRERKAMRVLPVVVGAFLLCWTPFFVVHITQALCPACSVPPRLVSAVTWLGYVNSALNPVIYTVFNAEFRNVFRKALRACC
# [3] = Mouse liver microsomal intrinsic clearance; assay type: in vitro ADME; conditions: for Predicted hepatic clearance mCLHEP: well-stirred organ CL model, binding terms excluded; for CLint scaled: liver microsomes
# [4] = Mouse plasma protein binding, equilibrium dialysis; assay type: in vitro ADME; conditions: mouse, plasma, fu (mPPB), fraction, used for Kp,uu
# [5] = Discrete mouse in vivo PK study, plasma and brain; conditions: for half-life: ip, 5 mg/kg
# SERT = SERT (Homo sapiens, UniProt P31645); test: PDSP panel binding, SERT; conditions: σ1 over SERT
# σ2 receptor = σ2 receptor (Homo sapiens, UniProt Q5BJF2); test: σ2 receptor radioligand binding, [3H]DTG, HEK293 membranes; conditions: ratio, σ1 over σ2
# [6] = Human plasma protein binding, equilibrium dialysis; assay type: in vitro ADME
# D1 receptor = D1 receptor (Homo sapiens, UniProt P21728); test: D1 receptor radioligand binding, [3H]SCH23390, HEK293 membranes
# α2A = target: T3, α2A (Homo sapiens, UniProt P08913); test: PDSP panel binding, α2A
# T3 sequence (P08913 1-465): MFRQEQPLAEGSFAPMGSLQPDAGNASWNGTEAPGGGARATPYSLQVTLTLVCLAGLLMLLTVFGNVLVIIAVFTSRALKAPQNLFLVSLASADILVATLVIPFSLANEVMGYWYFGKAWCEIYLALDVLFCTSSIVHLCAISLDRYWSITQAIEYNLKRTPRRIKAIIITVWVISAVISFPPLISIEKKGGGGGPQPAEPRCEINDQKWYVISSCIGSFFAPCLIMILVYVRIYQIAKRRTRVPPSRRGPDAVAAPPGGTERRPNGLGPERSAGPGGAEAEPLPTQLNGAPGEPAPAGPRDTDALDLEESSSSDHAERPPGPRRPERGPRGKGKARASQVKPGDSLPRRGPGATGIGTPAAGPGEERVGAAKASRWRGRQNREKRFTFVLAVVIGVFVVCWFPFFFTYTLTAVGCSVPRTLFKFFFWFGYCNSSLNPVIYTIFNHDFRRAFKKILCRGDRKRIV
# Sequence of σ2 receptor (Q5BJF2 whole entry, species assumed): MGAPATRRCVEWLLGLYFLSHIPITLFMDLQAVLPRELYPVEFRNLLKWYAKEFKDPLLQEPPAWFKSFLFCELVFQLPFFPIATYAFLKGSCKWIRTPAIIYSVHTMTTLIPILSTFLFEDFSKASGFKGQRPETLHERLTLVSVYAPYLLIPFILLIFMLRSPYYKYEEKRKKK
# Sequence of SERT (P31645 whole entry, species assumed): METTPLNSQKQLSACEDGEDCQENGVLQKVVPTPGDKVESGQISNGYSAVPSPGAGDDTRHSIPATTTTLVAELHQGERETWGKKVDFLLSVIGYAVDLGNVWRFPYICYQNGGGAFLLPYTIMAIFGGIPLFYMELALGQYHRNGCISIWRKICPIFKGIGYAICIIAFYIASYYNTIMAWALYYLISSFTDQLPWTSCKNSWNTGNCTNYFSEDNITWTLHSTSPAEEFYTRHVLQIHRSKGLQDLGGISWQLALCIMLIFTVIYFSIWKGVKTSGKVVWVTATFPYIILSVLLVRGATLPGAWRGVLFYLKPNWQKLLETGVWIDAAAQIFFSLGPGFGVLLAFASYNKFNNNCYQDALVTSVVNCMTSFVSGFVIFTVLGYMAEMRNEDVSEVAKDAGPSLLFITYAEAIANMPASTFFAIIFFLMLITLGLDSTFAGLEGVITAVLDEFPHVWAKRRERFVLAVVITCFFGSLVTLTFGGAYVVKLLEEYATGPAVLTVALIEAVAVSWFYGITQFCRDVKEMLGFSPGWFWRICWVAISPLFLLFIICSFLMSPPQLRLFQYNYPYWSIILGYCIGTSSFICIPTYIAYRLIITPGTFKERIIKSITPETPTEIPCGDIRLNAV
# Sequence of D1 receptor (P21728 whole entry): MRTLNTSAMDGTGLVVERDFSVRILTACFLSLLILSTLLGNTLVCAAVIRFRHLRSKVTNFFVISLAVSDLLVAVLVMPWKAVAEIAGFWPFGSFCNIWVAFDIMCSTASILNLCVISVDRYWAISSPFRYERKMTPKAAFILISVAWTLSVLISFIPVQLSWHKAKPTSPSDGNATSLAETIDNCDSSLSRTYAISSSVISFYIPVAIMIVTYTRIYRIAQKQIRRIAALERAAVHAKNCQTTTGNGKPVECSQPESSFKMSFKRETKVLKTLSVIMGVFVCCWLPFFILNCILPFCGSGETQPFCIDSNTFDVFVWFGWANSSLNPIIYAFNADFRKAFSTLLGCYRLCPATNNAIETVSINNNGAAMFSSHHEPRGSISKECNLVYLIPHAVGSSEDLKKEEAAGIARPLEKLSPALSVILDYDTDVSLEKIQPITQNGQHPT
Structure (SMILES),CLint scaled [1] [mL/min/kg],Predicted hepatic clearance hCLHEP [1] [mL/min/kg],Ki (α2C) [nM],selectivity versus α2C (α2C; σ1 over α2C),fraction unbound [2],selectivity against the dopamine receptor family (D4 receptor; σ1 over D1-5) [fold],Predicted hepatic clearance mCLHEP [3] [mL/min/kg],fraction unbound [4],"B:P Kp,uu ([5]; IP 5 mg/kg, 5 h, free brain to free plasma concentration)",half-life ([5]; brain) [h],half-life ([5]; plasma) [h],selectivity versus SERT (SERT),selectivity σ1:σ2 (σ2 receptor),Stability in human plasma (hPPB column) [6],CLint scaled [3] [mL/min/kg],Ki (D1 receptor) [nM],Ki (D4 receptor) [nM],inhibition at 10 µM (D4 receptor; read-out: D4 % inhibition) [%],Ki (α2A) [nM],selectivity versus α2A (α2A; σ1 over α2A)
"Fc1ccc(COC2CCN(Cc3ccc4[nH]cnc4c3)CC2)cc1F [Compound 10a, 5-((4-((3,4-difluorobenzyl)oxy)piperidin-1-yl)methyl)-1H-benzo[d]imidazole]",< 20,<10,853,103,0.205,> 490,46.0,0.358,3.68,9.1,2.1,20,20,,,,,,,
"Fc1cc(COC2CCN(Cc3ccc4[nH]cnc4c3)CC2)ccc1Cl [Compound 10b, 5-((4-((4-chloro-3-fluorobenzyl)oxy)piperidin-1-yl)methyl)-1H-benzo[d]imidazole]",,14.2,,,0.093,,45.1,0.189,,6.9,3.7,,,,,,,,,
"COc1ccc(CN2CCC[C@@H](OCc3ccc(F)c(C)c3)C2)cc1F [Compound 19b, (R)-3-((4-fluoro-3-methylbenzyl)oxy)-1-(3-fluoro-4-methoxybenzyl)piperidine]",674,19.5,,,,,82.4,,,,,,,c,961,,,,,
"COc1ccc(CO[C@H]2CCCN(Cc3cccc(C)c3)C2)cc1F [Compound 19h, (S)-3-((3-fluoro-4-methoxybenzyl)oxy)-1-(3-methylbenzyl)piperidine]",,,,,,,,,,,,,,,,> 10000,> 10000,46,,
"Fc1ccc(CN2CCCC23CCN(Cc2cn4ccccc4n2)C3)cc1F (centres unmarked) [Compound 25a, 1-(3,4-difluorobenzyl)-7-(imidazo[1,2-a]pyridin-2-ylmethyl)-1,7-diazaspiro[4.4]nonane]",223,18.4,,,,,79.8,,,,,,6,,696,,> 10000,,697,194
